From patent US20230295152A1 (SENDA BIOSCIENCES, INC., priority 2019, published 2023)

Tests used:
[1] = Plasma Protein Binding, monkey; assay type: in vitro ADME; conditions: read-out: Plasma Protein Binding PPB (mon) % (converted)
Protocol: (§1) Example 10: Plasma Protein Binding Determination with Ultracentrifugation Method
(§2) The frozen plasma (stored at −80° C.) was thawed in a 37° C. water bath, followed by centrifugation at 3,220 g for 10 minutes to remove clots. The supernatant was removed into a new tube as the spun plasma. The spun plasma was pre-warmed in a 37° C. water bath for 10 minutes. The stock solutions of test compounds were diluted to 200 μM in DMSO, and then spiked into the plasma. Duplicate samples were prepared. The final concentration of compound was 1.0 μM. The final concentration of organic solvent was 0.5%. Warfarin was used as positive control in the assay. 1.0 mL of the spiked plasma was transferred to a new balance ultracentrifuge tube. Samples were incubated at 37° C., 5% CO2 for 30 minutes. After incubation, the balance ultracentrifuge tubes were centrifuged at 600,000 g for 5.5 hours at 37° C. […]
(§3) Data Analysis: All calculations were carried out using Microsoft Excel. The concentrations of test compound in plasma samples and post-ultracentrifugation plasma was determined from peak areas. The percentages of test compound bound was calculated as follows: […]

[2] = test system: CT26 cells implanted subcutaneously into Balb/c mice; assay: CT26 syngeneic colon cancer model, AhR antagonist with PD-L1 antibody; assay type: in vivo; conditions: for Cmin: CT26 model, dose 10 mg/kg
[3] = as above; assay type: in vivo; conditions: female, Balb/c, mouse, in vivo, po; CT26 model, dose 10 mg/kg
[4] = Plasma Protein Binding, dog; assay type: in vitro ADME; conditions: read-out: Plasma Protein Binding PPB (d) % (converted)
Protocol: as §1, §2, §3

[5] = test system: CYP; assay: CYP Inhibition (in vitro DMPK profile, Table 52); assay type: in vitro ADME
Protocol: Example 11: CYP Inhibition Assay
Stock solutions of test compounds were prepared in DMSO at the concentrations of 10 mM. Stock solution was diluted to 2 mM with acetonitrile. The final concentration of test compounds was 10 μM. For the stock solution preparation, if the positive control could not be well dissolved in the mixture of DMSO and acetonitrile (1:4) at the highest concentration, another mixture of acetonitrile and DMSO, the mixture of acetonitrile and H2O or DMSO will be used to dissolve the compound.
Data Analysis: The automatic peak integration areas are checked for all the samples. The Analyte Peak Area and Internal Standard Peak Area are exported into excel spreadsheet. The inhibition of each P450 enzyme in human liver microsomes is measured as the percentage decrease in the activity of marker metabolite formation compared to non-inhibited controls (=100% activity).

[6] = Plasma Protein Binding with Ultracentrifugation Method, rat; assay type: in vitro ADME; conditions: for fraction unbound at 30 min, 1 μM: rat plasma, read-out: Rat plasma protein binding (% bound); for fraction unbound at 5.5 h, 1 μM: rat, plasma, read-out: Plasma Protein Binding PPB (r) % (converted)
Protocol: The frozen plasma (stored at −80° C.) was thawed in a 37° C. water bath, followed by centrifugation at 3,220 g for 10 minutes to remove clots. The supernatant was removed into a new tube as the spun plasma. The spun plasma was pre-warmed in a 37° C. water bath for 10 minutes. The stock solutions of test compounds were diluted to 200 μM in DMSO, and then spiked into the plasma. Duplicate samples were prepared. The final concentration of compound was 1.0 μM. The final concentration of organic solvent was 0.5%. Warfarin was used as positive control in the assay. 1.0 mL of the spiked plasma was transferred to a new balance ultracentrifuge tube. Samples were incubated at 37° C., 5% CO2 for 30 minutes. After incubation, the balance ultracentrifuge tubes were centrifuged at 600,000 g for 5.5 hours at 37° C. After centrifugation, 50 μL solution was removed from the center of the ultracentrifuge tubes as the post-ultracentrifugation samples, followed by the addition of 50 μL blank plasma and 400 μL quench solution (acetonitrile containing internal standards (IS, 100 nM Alprazolam, 500 nM Labetalol and 2 μM Ketoprofen)) to precipitate protein and release compounds. Samples were vortexed for 2 minutes, followed by centrifugation at 20,000 g for 15 minutes at room temperature. The supernatant was diluted with ultrapure water and then used for LC-MS/MS analysis. Stability samples was prepared by transferring 50 μL of the spiked plasma to 0.6 mL tubes and incubated at 37° C., 5% CO2 for 0.5 and 6 hours. After incubation, 50 μL PBS (100 mM, pH7.4) and 400 μL quench solution were added to the stability samples. And then stability samples were treated the same way as the post-ultracentrifugation samples. The supernatant was diluted with ultrapure water and then used for LC-MS/MS analysis. 0.5 hour time point samples were also used as no-spun controls. Time 0 samples were prepared by transferring 50 μL spiked plasma to 0.6 mL tubes containing 50 μL PBS, followed by the addition of 400 μL quench solution to precipitate protein and release compound. And then these samples were treated the same way as the post-ultracentrifugation samples. The supernatant was diluted with ultrapure water and then used for LC-MS/MS analysis.
as §3
“+++” indicates a % bound value less than 50, “++” indicates a % bound value between 50 and 75, and “+” indicates a % bound value above 75.

[7] = Suspension Monkey heps ClInt; assay type: in vitro ADME; conditions: @1 and 0.1 mM
From the text: Compound Nos. 9 and 46 have the following in vitro DMPK profiles.

SMILES	fraction unbound at 5.5 h, 1 μM [1]	Cmin [2]	Cmax [3] [µM]	fraction unbound at 5.5 h, 1 μM [4]	CYP Inhibition [5]	fraction unbound at 30 min, 1 μM [6]	fraction unbound at 5.5 h, 1 μM [6]	Suspension Monkey heps ClInt (% Qh) [7]	other results
C[C@@H](CO)n1cnc2c(-c3cccnc3)nc(-c3ccc(C(F)(F)F)cn3)cc2c1=O [Compound 46, (S)-3-(1-hydroxypropan-2-yl)-8-(pyridin-3-yl)-6-(5-(trifluoromethyl)pyridin-2-yl)pyrido[3,4-d]pyrimidin-4(3H)-one]	0.113	12,350 nm	17.3	0.11	Negative	< 0.25	0.102	<24 (@1 and % Qh	tumor volume, coadministration with PD-L1 antibody ([2]; FIG. 12, 10 mg/kg p.o. once a day over 14 days with anti-PD-L1 antibody 10 mg/kg IP every 3 days): reduction in tumor volume; tumor weight upon termination of study, coadministration with PD-L1 antibody ([2]; FIG. 13, 10 mg/kg p.o. once a day over 14 days with anti-PD-L1 antibody 10 mg/kg IP every 3 days): reduction in tumor weight
C[C@H](n1cnc2c(-c3cnn(C)c3)nc(-c3ccc(Cl)cc3)cc2c1=O)C(C)(C)O [Compound 30]	–	1,725 nm	5.88	–	–	< 0.25	–	–	tumor volume, coadministration with PD-L1 antibody ([2]; FIG. 4, 10 mg/kg p.o. once a day over 14 days with anti-PD-L1 antibody 10 mg/kg IP every 3 days, p=0.039 (Mann-Whitney)): reduction in tumor volume; tumor weight upon termination of study, coadministration with PD-L1 antibody ([2]; FIG. 5, 10 mg/kg p.o. once a day over 14 days with anti-PD-L1 antibody 10 mg/kg IP every 3 days, p=0.067 (Mann-Whitney)): reduction in tumor weight; tumor volume, coadministration with PD-L1 antibody ([2]; FIG. 6, 10 mg/kg p.o. once a day over 14 days with anti-PD-L1 antibody 10 mg/kg IP every 3 days, p=0.350 (Kruskal Wallis, Dunn's)): reduction in tumor volume; tumor weight upon termination of study, coadministration with PD-L1 antibody ([2]; FIG. 7, 10 mg/kg p.o. once a day over 14 days with anti-PD-L1 antibody 10 mg/kg IP every 3 days, p=0.0004 (Kruskal Wallis, Dunn's)): reduction in tumor weight
CC(C)(O)Cn1cnc2c(-c3cccnc3)nc(-c3ccc(C(F)(F)F)nc3)cc2c1=O [Compound 9]	0.149	849 nm	4.96	0.124	Negative	< 0.25	0.098	<24 (@1 and % Qh	tumor volume and weight, combination with PD-L1 compared to PD-L1 alone (overall) ([2]; 10 mg/kg or 1 mg/kg p.o. once a day over 14 days with anti-PD-L1 antibody 10 mg/kg IP every 3 days): decreases tumor volume and weight compared to PD-L1 alone; tumor volume, coadministration with PD-L1 antibody ([2]; FIG. 8, 10 mg/kg p.o. once a day over 14 days with anti-PD-L1 antibody 10 mg/kg IP every 3 days, p=0.0070 (Mann-Whitney)): reduction in tumor volume; tumor weight upon termination of study, coadministration with PD-L1 antibody ([2]; FIG. 9, p.o. once a day over 14 days with anti-PD-L1 antibody 10 mg/kg IP every 3 days, p=0.0114 (Mann-Whitney)): reduction in tumor weight; tumor volume, coadministration with PD-L1 antibody ([2]; FIG. 10, 1 mg/kg p.o. once a day over 14 days with anti-PD-L1 antibody 10 mg/kg IP every 3 days, p=0.0039 (Kruskal Wallis, Dunn's)): reduction in tumor volume; tumor weight upon termination of study, coadministration with PD-L1 antibody ([2]; FIG. 11, p.o. once a day over 14 days with anti-PD-L1 antibody 10 mg/kg IP every 3 days, p=0.0029 (Kruskal Wallis, Dunn's)): reduction in tumor weight
C[C@@H](CO)n1cnc2c(-c3cccc(F)c3)nc(-c3ccc(Cl)cc3)cc2c1=O [Compound 7]	–	–	–	–	–	< 0.25	–	–	tumor volume, coadministration with PD-L1 antibody ([2]; FIG. 2, 3 mg/kg p.o. once a day over 14 days with anti-PD-L1 antibody 10 mg/kg IP every 3 days, p=0.0039 (Mann-Whitney)): reduction in tumor volume; tumor weight upon termination of study, coadministration with PD-L1 antibody ([2]; FIG. 3, 3 mg/kg p.o. once a day over 14 days with anti-PD-L1 antibody 10 mg/kg IP every 3 days, p=0.041 (Mann-Whitney)): reduction in tumor weight
